Entries after “also recorded” stand apart in the source; their conditions may differ.
Legend:
[1] = test system: mixture of heparitinase I, II, and III; experiment: Heparitinase enzyme inhibition study, heparin disaccharides analysed by HPLC; assay type: biochemical; conditions: 10% w/w OSCS in heparin (90% heparin + 10% w/w OSCS)
Protocol: (§1) Once it was established that enzyme action causes the fluorescence probe to recover from being quenched, a heparitinase enzyme inhibition study was carried out in the presence of OSCS-contaminated heparin. For this study, a mixture of heparitinase I, II, and III was incubated with (a) heparin (200 μg), (b) heparin with 10% w/w chondroitin sulfate A and C and (c) heparin with 10% w/w OSCS. The resulting oligosaccharides were then analyzed by analytical HPLC. […] The enzyme activity on the nanosensor should be maximal at low OSCS concentration and minimal at high OSCS concentration. Consequently, the fluorescence quenching of the dye should be minimal at low OSCS concentrations (and measured fluorescence should be high) and quenching should be maximal at high OSCS concentrations (and measured fluorescence should below).

heparitinase = experiment: Au-heparin-dye nanosensor fluorescence assay with heparitinase and OSCS-spiked heparin (96-well plate); assay type: biochemical; conditions: in the presence of 10% w/w OSCS
Protocol: as §1
In order to develop an analytical method and kit for determining contamination in heparin, serial dilutions of OSCS were performed at log increment concentrations from 0.1 μg/μL to 0.1 femtogram (fg)/μL. Next, standard heparin solutions (10 μg) were spiked serially with OSCS solutions from 1 μg (10% w/w) to 0.1 fg (10^−9% w/w) of OSCS “contamination” resulting in 11 separate tests. Heparin (10 μg) and OSCS (10 μg) were utilized as positive and negative controls, respectively. […]

oversulfated chondroitin sulfate [OSCS]
inhibition of heparitinase enzyme activity (HPLC profile of heparin disaccharides) [1]: completely inhibits the enzyme; also recorded: powerful inhibitor | heparitinase action on Au-heparin-dye nanosensor (fluorescence quenching) (heparitinase): heparitinases could not act on the Au-heparin-dye nanosensor and fluorescence quenching was maintained

Source: US20160201112A1, “NANOSENSOR FOR DETECTING THE ACTIVITY OF GLYCOSAMINOGLYCAN-CLEAVING ENZYMES AND USES THEREOF” (VIRGINIA COMMONWEALTH UNIVERSITY, priority 2013, published 2016)
